Results published in ChEMBL document CHEMBL4011590, “Structure-activity relationship studies on 3,5-dinitrophenyl tetrazoles as antitubercular agents” (Eur J Med Chem, 2017).

Columns and labels:
Klebsiella pneumoniae [1] = test: Antibacterial activity against Klebsiella pneumoniae HK11750/08 after 48 hrs by broth microdilution method; assay type: functional; settings: HK11750/08, 48 h
Staphylococcus aureus [2] = test: Antibacterial activity against Staphylococcus aureus ATCC 6538 after 48 hrs by broth microdilution method; assay type: functional; settings: ATCC 6538, 48 h
Mycobacterium kansasii [3] = test: Antimycobacterial activity against Mycobacterium kansasii CNCTC My 235/80 after 7 days by micromethod; assay type: functional; settings: CNCTC My 235/80, 168 h
Enterococcus sp. [4] = test: Antibacterial activity against Enterococcus sp. HK14365/08 after 24 hrs by broth microdilution method; assay type: functional; settings: HK14365/08, 24 h
[5] = system: Mycobacterium tuberculosis; test: Antimycobacterial activity against Mycobacterium tuberculosis H37Rv CNCTC My 331/88 after 21 days by micromethod; assay type: functional; settings: H37Rv CNCTC My 331/88, 504 h
Trichosporon asahii [6] = test: Antifungal activity against Trichosporon asahii 1188 after 24 hrs by broth microdilution method; assay type: functional; settings: Trichosporon asahii, 1188, 24 h
[7] = system: Trichophyton mentagrophytes; test: Antifungal activity against Trichophyton mentagrophytes 445 after 120 hrs by broth microdilution method; assay type: functional; settings: Trichophyton mentagrophytes, 445, 120 h
Staphylococcus aureus [8] = test: Antibacterial activity against Staphylococcus aureus ATCC 6538 after 24 hrs by broth microdilution method; assay type: functional; settings: ATCC 6538, 24 h
CHO-K1 = test: Cytotoxicity against CHOK1 cells after 24 hrs by MTT assay; assay type: cell-based; settings: Cricetulus griseus, CHO-K1, 24 h
Candida albicans [9] = test: Antifungal activity against Candida albicans ATCC 44859 after 24 hrs by broth microdilution method; assay type: functional; settings: ATCC 44859, 24 h
Staphylococcus aureus [10] = test: Antibacterial activity against methicillin-resistant Staphylococcus aureus HK5996/08 after 24 hrs by broth microdilution method; assay type: functional; settings: HK5996/08, 24 h
Candida tropicalis [11] = test: Antifungal activity against Candida tropicalis 156 after 24 hrs by broth microdilution method; assay type: functional; settings: Candida tropicalis, 156, 24 h
Enterococcus sp. [12] = test: Antibacterial activity against Enterococcus sp. HK14365/08 after 48 hrs by broth microdilution method; assay type: functional; settings: HK14365/08, 48 h
Mycobacterium kansasii [13] = test: Antimycobacterial activity against Mycobacterium kansasii isolate 6509/96 after 14 days by micromethod; assay type: functional; settings: isolate 6509/96, 336 h
Lichtheimia corymbifera [14] = test: Antifungal activity against Absidia corymbifera 272 after 24 hrs by broth microdilution method; assay type: functional; settings: Lichtheimia corymbifera, 272, 24 h
Mycobacterium kansasii [15] = test: Antimycobacterial activity against Mycobacterium kansasii CNCTC My 235/80 after 21 days by micromethod; assay type: functional; settings: CNCTC My 235/80, 504 h
Mycobacterium kansasii [16] = test: Antimycobacterial activity against Mycobacterium kansasii isolate 6509/96 after 7 days by micromethod; assay type: functional; settings: isolate 6509/96, 168 h
Klebsiella pneumoniae [17] = test: Antibacterial activity against extended spectrum beta-lactamase producing Klebsiella pneumoniae HK14368/08 after 48 hrs by broth microdilution method; assay type: functional; settings: HK14368/08, 48 h
Pichia kudriavzevii [18] = test: Antifungal activity against Candida krusei E28 after 24 hrs by broth microdilution method; assay type: functional; settings: E28, 24 h
Mycobacterium kansasii [19] = test: Antimycobacterial activity against Mycobacterium kansasii CNCTC My 235/80 after 14 days by micromethod; assay type: functional; settings: CNCTC My 235/80, 336 h
Escherichia coli [20] = test: Antibacterial activity against Escherichia coli ATCC 8739 after 48 hrs by broth microdilution method; assay type: functional; settings: ATCC 8739, 48 h
Pseudomonas aeruginosa [21] = test: Antibacterial activity against Pseudomonas aeruginosa ATCC 9027 after 24 hrs by broth microdilution method; assay type: functional; settings: ATCC 9027, 24 h
[22] = system: Mycobacterium tuberculosis; test: Antimycobacterial activity against Mycobacterium tuberculosis H37Rv CNCTC My 331/88 after 14 days by micromethod; assay type: functional; settings: H37Rv CNCTC My 331/88, 336 h
Pseudomonas aeruginosa [23] = test: Antibacterial activity against Pseudomonas aeruginosa ATCC 9027 after 48 hrs by broth microdilution method; assay type: functional; settings: ATCC 9027, 48 h
Mycobacterium avium [24] = test: Antimycobacterial activity against Mycobacterium avium CNCTC My 330/80 after 21 days by micromethod; assay type: functional; settings: CNCTC My 330/80, 504 h
Escherichia coli [25] = test: Antibacterial activity against Escherichia coli ATCC 8739 after 24 hrs by broth microdilution method; assay type: functional; settings: ATCC 8739, 24 h
[26] = Selectivity index, ratio of IC50 for human HaCaT cells to MIC for Mycobacterium tuberculosis H37Rv CNCTC My 331/88; assay type: toxicity; settings: read-out: Selectivity Index
Klebsiella pneumoniae [27] = test: Antibacterial activity against Klebsiella pneumoniae HK11750/08 after 24 hrs by broth microdilution method; assay type: functional; settings: HK11750/08, 24 h
Lichtheimia corymbifera [28] = test: Antifungal activity against Absidia corymbifera 272 after 48 hrs by broth microdilution method; assay type: functional; settings: Lichtheimia corymbifera, 272, 48 h
Klebsiella pneumoniae [29] = test: Antibacterial activity against extended spectrum beta-lactamase producing Klebsiella pneumoniae HK14368/08 after 24 hrs by broth microdilution method; assay type: functional; settings: HK14368/08, 24 h
Candida tropicalis [30] = test: Antifungal activity against Candida tropicalis 156 after 48 hrs by broth microdilution method; assay type: functional; settings: Candida tropicalis, 156, 48 h
Mycobacterium kansasii [31] = test: Antimycobacterial activity against Mycobacterium kansasii isolate 6509/96 after 21 days by micromethod; assay type: functional; settings: isolate 6509/96, 504 h
Staphylococcus aureus [32] = test: Antibacterial activity against methicillin-resistant Staphylococcus aureus HK5996/08 after 48 hrs by broth microdilution method; assay type: functional; settings: HK5996/08, 48 h
Aspergillus fumigatus [33] = test: Antifungal activity against Aspergillus fumigatus 231 after 24 hrs by broth microdilution method; assay type: functional; settings: Aspergillus fumigatus, 231, 24 h
Trichosporon asahii [34] = test: Antifungal activity against Trichosporon asahii 1188 after 48 hrs by broth microdilution method; assay type: functional; settings: Trichosporon asahii, 1188, 48 h
Candida albicans [35] = test: Antifungal activity against Candida albicans ATCC 44859 after 48 hrs by broth microdilution method; assay type: functional; settings: ATCC 44859, 48 h
[36] = system: Trichophyton mentagrophytes; test: Antifungal activity against Trichophyton mentagrophytes 445 after 72 hrs by broth microdilution method; assay type: functional; settings: Trichophyton mentagrophytes, 445, 72 h
HaCaT = test: Cytotoxicity against human HaCaT cells after 72 hrs by neutral red uptake assay; assay type: cell-based
Nakaseomyces glabratus [37] = test: Antifungal activity against Candida glabrata 20/I after 48 hrs by broth microdilution method; assay type: functional
[38] = Selectivity index, ratio of IC50 for mouse 3T3 cells to MIC for Mycobacterium tuberculosis H37Rv CNCTC My 331/88; assay type: toxicity; settings: read-out: Selectivity Index
Mycobacterium avium [39] = test: Antimycobacterial activity against Mycobacterium avium CNCTC My 330/80 after 14 days by micromethod; assay type: functional; settings: CNCTC My 330/80, 336 h
Pichia kudriavzevii [40] = test: Antifungal activity against Candida krusei E28 after 48 hrs by broth microdilution method; assay type: functional; settings: E28, 48 h
[41] = Selectivity index, ratio of IC50 for CHOK1 cells to MIC for Mycobacterium tuberculosis H37Rv CNCTC My 331/88; assay type: toxicity; settings: hamster, CHO-K1 cells; read-out: Selectivity Index
Aspergillus fumigatus [42] = test: Antifungal activity against Aspergillus fumigatus 231 after 48 hrs by broth microdilution method; assay type: functional; settings: Aspergillus fumigatus, 231, 48 h
Nakaseomyces glabratus [43] = test: Antifungal activity against Candida glabrata 20/I after 24 hrs by broth microdilution method; assay type: functional
[44] = system: Staphylococcus epidermidis; test: Antibacterial activity against Staphylococcus epidermidis HK6966/08 after 24 hrs by broth microdilution method; assay type: functional; settings: HK6966/08, 24 h
[45] = system: Staphylococcus epidermidis; test: Antibacterial activity against Staphylococcus epidermidis HK6966/08 after 48 hrs by broth microdilution method; assay type: functional; settings: HK6966/08, 48 h

COc1ccc(Cn2nnc(-c3cc([N+](=O)[O-])cc([N+](=O)[O-])c3)n2)cc1
0.25 µM: MIC99 (Mycobacterium kansasii [15])
250 µM: MIC (Staphylococcus aureus [10]) | MIC (Staphylococcus aureus [32])
96 µM: IC50 (CHO-K1)
> 250 µM: MIC (Staphylococcus aureus [2]) | MIC (Staphylococcus aureus [8])
0.03 µM: MIC99 [5] | MIC99 [22]
0.125 µM: MIC99 (Mycobacterium kansasii [3]) | MIC99 (Mycobacterium kansasii [19]) | MIC99 (Mycobacterium kansasii [31])
> 100 µM: IC50 (HaCaT)
0.06 µM: MIC99 (Mycobacterium kansasii [13]) | MIC99 (Mycobacterium kansasii [16])
4 µM: MIC99 (Mycobacterium avium [39])
8 µM: MIC99 (Mycobacterium avium [24])
> 1000: selectivity ratio [26] | selectivity ratio [38] | selectivity ratio [41]
> 500 µM: MIC (Klebsiella pneumoniae [1]) | MIC (Enterococcus sp. [4]) | MIC (Trichosporon asahii [6]) | MIC [7] | MIC (Candida albicans [9]) | MIC (Candida tropicalis [11]) | MIC (Enterococcus sp. [12]) | MIC (Lichtheimia corymbifera [14]) | MIC (Klebsiella pneumoniae [17]) | MIC (Pichia kudriavzevii [18]) | MIC (Escherichia coli [20]) | MIC (Pseudomonas aeruginosa [21]) | MIC (Pseudomonas aeruginosa [23]) | MIC (Escherichia coli [25]) | MIC (Klebsiella pneumoniae [27]) | MIC (Lichtheimia corymbifera [28]) | MIC (Klebsiella pneumoniae [29]) | MIC (Candida tropicalis [30]) | MIC (Aspergillus fumigatus [33]) | MIC (Trichosporon asahii [34]) | MIC (Candida albicans [35]) | MIC [36] | MIC (Nakaseomyces glabratus [37]) | MIC (Pichia kudriavzevii [40]) | MIC (Aspergillus fumigatus [42]) | MIC (Nakaseomyces glabratus [43])

O=[N+]([O-])c1cc(-c2nnn(CSc3nnnn3-c3ccc(Cl)c(Cl)c3)n2)cc([N+](=O)[O-])c1
125 µM: MIC99 (Mycobacterium kansasii [15])
0.06 µM: MIC99 (Mycobacterium kansasii [3]) | MIC99 (Mycobacterium kansasii [13]) | MIC99 (Mycobacterium kansasii [31])
8 µM: MIC99 (Mycobacterium avium [24])
0.125 µM: MIC99 (Mycobacterium kansasii [19])
0.03 µM: MIC99 [5] | MIC99 (Mycobacterium kansasii [16]) | MIC99 [22]
8.7 µM: IC50 (CHO-K1)
> 125 µM: MIC (Klebsiella pneumoniae [1]) | MIC (Staphylococcus aureus [2]) | MIC (Enterococcus sp. [4]) | MIC (Trichosporon asahii [6]) | MIC [7] | MIC [44] | MIC (Staphylococcus aureus [8]) | MIC (Candida albicans [9]) | MIC (Staphylococcus aureus [10]) | MIC (Candida tropicalis [11]) | MIC (Enterococcus sp. [12]) | MIC (Lichtheimia corymbifera [14]) | MIC (Klebsiella pneumoniae [17]) | MIC (Pichia kudriavzevii [18]) | MIC (Escherichia coli [20]) | MIC (Pseudomonas aeruginosa [21]) | MIC (Pseudomonas aeruginosa [23]) | MIC (Escherichia coli [25]) | MIC (Klebsiella pneumoniae [27]) | MIC [45] | MIC (Lichtheimia corymbifera [28]) | MIC (Klebsiella pneumoniae [29]) | MIC (Candida tropicalis [30]) | MIC (Staphylococcus aureus [32]) | MIC (Aspergillus fumigatus [33]) | MIC (Trichosporon asahii [34]) | MIC (Candida albicans [35]) | MIC [36] | MIC (Nakaseomyces glabratus [37]) | MIC (Pichia kudriavzevii [40]) | MIC (Aspergillus fumigatus [42]) | MIC (Nakaseomyces glabratus [43])
4 µM: MIC99 (Mycobacterium avium [39])
